5 compounds from patent US12162879B2, “Pyridopyrimidine derivative, preparation method therefor and medical use thereof” (Jiangsu Hengrui Medicine Co., Ltd., priority 2018, dated 2024) can be followed below.

One may read the IC50 as the concentration that gives 50% inhibition.

The target of one data set is CYP2D6 (Homo sapiens (Human), UniProt P10635). Briefly: Inhibition of enzyme activity of CYP2D6 in human liver microsome. The class given is in vitro ADME. To be noted: dextromethorphan probe substrate, 30 minutes, read-out: IC50 of the inhibition effect on CYP2D6 enzyme. On the procedure:
The effect of the compounds of the present invention on the enzyme activity of CYP2D6 in human liver microsome was determined by the following experimental method.
• 1. Phosphate buffer solution (PBS); • 2. NADPH (Sigma N-1630); • 3. Human liver microsome (Corning Gentest); • 4. ABI QTrap 4000 liquid chromatograph/mass spectrometer (AB Sciex); • 5. Inertsil C8-3 column, 4.6×50 mm, 5 μm (Dikma Technologies Inc., USA); and • 6. CYP probe substrate (20 μM dextromethorphan, SIGMA Q0750) and positive control inhibitor (quinidine, SIGMA D9684). II. Experimental Procedures
100 mM PBS buffer was formulated, which was then used to formulate 2.5 mg/ml human microsome solution and 5 mM NADPH solution. The 5× concentration of the compound working solution was diluted with PBS in gradients (150, 50, 15, 5, 1.5, 0.15, 0.015, 0 μM). The 5× concentration of quinidine working solution was diluted with PBS in gradients (150, 50, 15, 5, 1.5, 0.15, 0.015, 0 μM). Dextromethorphan working solution was diluted with PBS to a concentration of 20 μM.
20 μl of 2.5 mg/ml microsome solution, 20 μl of 20 μM dextromethorphan working solution, 20 μl of MgCl2 solution and 20 μl of the compound working solution (150, 50, 15, 5, 1.5, 0.15, 0.015, 0 μM, different reaction systems for each concentration) were mixed well. For the positive control group, the compound was replaced with the same concentration of quinidine. The mixture together with 5 mM NADPH solution was pre-incubated at 37° C. for 5 minutes. After 5 minutes, 20 μl of NADPH was added to each well, the reaction was initiated, and the plate was incubated for 30 minutes. All the incubated samples were present in duplicate. After 30 minutes, 250 μl of acetonitrile containing internal standard (100 ng/ml camptothecin) was added to all samples, mixed well, shaken at 800 rpm for 10 minutes, and then centrifuged at 3700 rpm for 10 minutes. 80 μl of the supernatant was taken and analyzed by LC-MS/MS.
The data was calculated by Graphpad Prism to obtain the IC50 values of the inhibition effect of the present compounds on CYP2D6 enzyme, which are shown in Table 3.
(Liver microsomes are vesicles of endoplasmic reticulum, rich in cytochrome P450 enzymes.)

Data set [1] relates to peripheral blood mononuclear cells (PBMC). Briefly: Stimulation of IFNγ secretion from PBMC. The class given is cell-based. As to conditions: minimum effective concentration, human PBMC, 24 hours. As for the experimental part:
The stimulating effect of the compounds of the present invention on the ability of secretion of IL12 and IFN γ from PBMC was determined by the following experimental method.
• 1. RMPI 1640 (Invitrogen, 11875); • 2. FBS (Gibco, 10099-141); • 3. Ficoll-Paque PREMIUM (GE, 17-5442-02); • 4. Trypan blue solution (Sigma, T8154-100 ML); • 5. SepMate™-50 (Stemcell, 15460); • 6. Bright-LineIM blood cell counter (Sigma, Z359629-1EA); • 7. 96-well cell culture plate (Corning, 3599); • 8. 96-well v-bottom plate (Corning, 3894); • 9. Human IL-12 ELISA kit (Neobioscience Technology Co., EHC152.96); • 10. Human IFN γ kit (cisbio, 62HIFNGPEG); and • 11. PHERAStar multi-function microplate reader (BMG, PHERAStar). II. Experimental Procedures
The compound was diluted with pure DMSO to a maximum concentration of 5 mM, and a total of 9 points were obtained by a 4-fold gradient dilution. 4 μl of the compound solution was then added to 196 μl of RMPI 1640 medium containing 10% FBS and mixed well. 50 μl of the mixture was taken and added to a 96-well cell culture plate.
All reagents were equilibrated to room temperature. 60 ml of blood from a healthy human and the same volume of PBS (containing 2% FBS) were added to a 250 ml culture flask, gently pipetted, mixed well and diluted. 15 ml of lymphocyte separation solution Ficoll-Paque PREMIUM was added to a 50 ml PBMC centrifuge tube SepMate™-50, followed by the addition of 30 ml of the above diluted blood. The mixture was centrifuged at 1200 g for 10 minutes at room temperature. The supernatant was taken and then centrifuged at 300 g for 8 minutes. The cells were re-suspended in the RMPI 1640 medium containing 10% FBS and counted, and the number of PBMCs was adjusted to 3.33×10^6 cells/ml. 150 μl of the cell solution was added to the plate containing the compounds, and incubated in an incubator at 37° C., 5.0% CO2 for 24 hours. The cell culture plate was placed in a centrifuge, and centrifuged at 1200 rpm for 10 minutes at room temperature. 150 μl of the supernatant was taken from each well.
The reagents in the Human IFN γ test kit were equilibrated to room temperature. The standard and detection antibody were prepared according to the kit's instruction under dark conditions. 16 μl of the supernatant obtained by centrifugation was added to each well, and 4 μl of freshly prepared mixed detection antibody was added to each well. The solution was mixed well by shaking, and incubated overnight in the dark at room temperature. The plate was read by the PHERAStar multi-function microplate reader.
The concentration of the compound that can stimulate PBMC to produce […] that is 3 times higher than the average value of the group without the compound (SD of the group without the compound) was defined as the minimum effective concentration (MEC) value of the compound.

Sequence of CYP2D6 (P10635 whole entry): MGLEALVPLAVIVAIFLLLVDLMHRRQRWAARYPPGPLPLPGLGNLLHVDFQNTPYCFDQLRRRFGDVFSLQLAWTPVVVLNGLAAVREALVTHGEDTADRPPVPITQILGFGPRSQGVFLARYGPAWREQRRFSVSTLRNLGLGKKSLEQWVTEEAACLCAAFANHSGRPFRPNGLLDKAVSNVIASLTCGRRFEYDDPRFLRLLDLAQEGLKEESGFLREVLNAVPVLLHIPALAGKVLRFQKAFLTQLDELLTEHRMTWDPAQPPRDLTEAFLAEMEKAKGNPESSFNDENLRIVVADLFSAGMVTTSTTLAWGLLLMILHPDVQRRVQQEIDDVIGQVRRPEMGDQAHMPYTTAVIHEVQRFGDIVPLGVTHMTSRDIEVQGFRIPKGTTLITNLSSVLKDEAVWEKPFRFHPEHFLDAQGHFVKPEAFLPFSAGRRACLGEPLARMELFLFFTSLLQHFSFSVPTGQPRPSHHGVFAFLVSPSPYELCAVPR

As for `CCCC[C@](C)(CO)Nc1nc(N)nc2cc(-c3ccc(CN4CCCC4)nc3)cnc12` [Example 2, (R)-2-((2-Amino-7-(6-(pyrrolidin-1-ylmethyl)pyridin-3-yl)pyrido[3,2-d]pyrimidin-4-yl)amino)-2-methylhexan-1-ol], the IC50 at CYP2D6 was greater than 30 µM. Moreover, the “IFNγ MEC” value in data set [1] is on record as 24 nM. On to `CCCC[C@](C)(CO)Nc1nc(N)nc2cc(-c3cnc(C4CCN(C)CC4)nc3)cnc12` [Example 8, (R)-2-((2-Amino-7-(2-(1-methylpiperidin-4-yl)pyrimidin-5-yl)pyrido[3,2-d]pyrimidin-4-yl)amino)-2-methylhexan-1-ol], for which, on CYP2D6, the IC50 was greater than 30 µM. Same read-out and setting: the same measure for `CCCCC(C)(CO)Nc1nc(N)nc2cc(-c3ccc(CN4CCN(C)CC4)nc3)cnc12` (stereo not shown) [Example 5, 2-((2-Amino-7-(6-((4-methylpiperazin-1-yl)methyl)pyridin-3-yl)pyrido[3,2-d]pyrimidin-4-yl)amino)-2-methylhexan-1-ol]: greater than 30 µM; for `CCCC[C@](C)(CO)Nc1nc(N)nc2cc(-c3ccc(CN4CCN(C)CC4)nc3)cnc12` [Example 6, (R)-2-((2-Amino-7-(6-((4-methylpiperazin-1-yl)methyl)pyridin-3-yl)pyrido[3,2-d]pyrimidin-4-yl)amino)-2-methylhexan-1-ol]: greater than 30 µM.

On to `CCCC[C@](C)(CO)Nc1nc(N)nc2cc(-c3ccc(C4CCN(C)CC4)nc3)cnc12` [Example 4, (R)-2-((2-Amino-7-(6-(1-methylpiperidin-4-yl)pyridin-3-yl)pyrido[3,2-d]pyrimidin-4-yl)amino)-2-methylhexan-1-ol], for which, at CYP2D6, the IC50 is greater than 30 µM. The “IFNγ MEC” value in data set [1] was 33 nM.
